Laboratory results taken from the NIST ThermoML archive (doi:10.1021/acs.jced.5b00613).

Assay: xn = mol fraction of the nth substance listed
Conditions: Liquid, Vibrating tube method

CCCCCCCCCCCCCCCC [hexadecane] + CCCCCC
mass density [kg/m3]
Conditions	100 kPa	1000 kPa	5000 kPa	10000 kPa	20000 kPa	30000 kPa	40000 kPa	50000 kPa	60000 kPa
348.15 K, x2 = 0.1985	–	–	–	–	–	–	–	–	765.6
348.15 K, x2 = 0.4136	–	–	–	–	–	–	–	–	751.9
348.15 K, x2 = 0.5007	–	–	–	–	–	–	–	–	744.2
348.15 K, x2 = 0.5966	–	–	–	–	–	–	–	–	735.5
348.15 K, x2 = 0.7928	–	–	–	–	–	–	–	704.3	711
373.15 K, x2 = 0.1985	706.6	707.5	711.7	716.4	725.2	733	740.1	746.6	752.7
373.15 K, x2 = 0.4136	689.1	690.2	694.8	699.9	709.4	717.7	725.3	732.3	738.7
373.15 K, x2 = 0.5007	–	681	685.8	691.2	701	709.7	717.5	724.6	731.2
373.15 K, x2 = 0.5966	–	669.9	674.9	680.7	691	700	708	715.3	722.1
373.15 K, x2 = 0.7928	–	638.3	644.3	651	662.7	672.8	681.7	689.7	697
423.15 K, x2 = 0.1985	668.8	670.8	676.3	682.5	693.7	703.3	711.9	719.7	726.8
423.15 K, x2 = 0.4136	–	651.3	657.6	664.5	676.6	687.1	696.3	704.6	712.1
423.15 K, x2 = 0.5007	–	640.9	647.6	654.9	667.6	678.5	688	696.5	704.2
423.15 K, x2 = 0.5966	–	628.2	635.3	643.3	656.9	668.3	678.2	687.1	695.2
423.15 K, x2 = 0.7928	–	592.3	601.2	610.7	626.4	639.2	650.3	660	668.8
463.15 K, x2 = 0.1985	–	640.3	647.5	655.5	669.1	680.6	690.5	699.3	707.4
463.15 K, x2 = 0.4136	–	618.2	626.5	635.6	650.7	663.2	673.9	683.4	692
463.15 K, x2 = 0.5007	–	606.1	615.2	624.9	640.9	654	665.1	674.9	683.6
463.15 K, x2 = 0.5966	–	593	602.9	613.2	630	643.6	655.2	665.3	674.4
463.15 K, x2 = 0.7928	–	–	563.7	577	597.1	612.8	625.8	637	647
